For series [1], the system named is spontaneously hypertensive rats (SHRs). Nature of the series: Change of SBP and DBP in SHRs by tail-cuff method after single oral administration. Conditions: single oral dose 1 mg/kg BW. Format: in vivo, rat. The method, then: Therefore, the antihypertensive activity of the aforementioned supernatant powder of the fermented dairy product were measured in SHRs and normotensive rats (Wistar-Kyoto rats, WKYs) to evaluate its potential applications to functional food for preventing hypertension. The male SHRs and male WKYs used in the present and following examples were purchased from National Laboratory Animal Center (Taipei, Taiwan) and fed with laboratory chow (Rodent laboratory chow 5001, Purina Co., USA). Blood pressures including SBP and DBP of 8- to 18-wk-old SHRs (body weight, 330-360 g) and 8- to 18-wk-old WKYs (body weight, 350-380 g) were measured by the tail-cuff method employing a tail-cuff detection system (Softron BP16; Softron, Tokyo, Japan). The antihypertensive activities of the test samples were evaluated by measuring the changes in SBP and DBP of SHRs and WKYs during 0-10 h after oral administration of respective samples.

The test system is the same in series [2]. The settings on record: cited from earlier work.
The format of series [3] is in vitro ADME. The method, then: Briefly, the peptide was digested with a pepsin solution (pH 2.5) (EC 3.4.23.1; 1:10000; Sigma, USA) for 1.5 h at 37° C., followed by digestion with Corolase PP (pH 7.5) (pancreatic protease; Rohm, Darmstadt, German) for 2.5 h at 37° C. To remove the enzyme added, the digested peptide solution was filtered through a 3 kDa cut-off centrifugal filter (Microcon YM-3, 3 kDa NMWL, Millipore Co., USA) by centrifugation at 1,000×g for 10 min. The filtrate was then used in the analysis for peptide fragments by MALDI-TOF-MS (matrix-assisted laser desorption ionization-time of flight mass spectrometry).

Read-outs that look alike come from different tables or passages of the source. Ends that are not written are not given here.

Take “KVLPVP [known peptide from casein hydrolysate (Maeno et al., 1996), synthetic comparator]”: the “maximal decrease in SBP” value in series [1] (at 2 h) is recorded as 27.8±3.3 mmHg. Besides, in series [1] (at 5 h), the “maximal decrease in DBP” value is listed as 17.5±4.2 mmHg.

Take “KVLPVPQ [known peptide from casein hydrolysate (Maeno et al., 1996), synthetic comparator]”: the “decrease of SBP” value in series [2] (single oral administration of 2 mg/kg BW, at 6 h (Maeno et al., 1996)) is 31.5±5.6 mmHg. Besides, the “maximal decrease in SBP” value in series [1] (at 3 h) stood at 29.2±4.0 mmHg. Also, in series [1] (at 4 h), the “maximal DBP decrease” value worked out at 14.4±3.2 mmHg.

Regarding “VLSLSQPKVLPVPQKAVPQ [Val-Leu-Ser-Leu-Ser-Gln-Pro-Lys-Val-Leu-Pro-Val-Pro-Gln-Lys-Ala-Val-Pro-Gln]”, the “peptide fragments after simulated gastro-intestinal digestion” value in series [3] was “did not contain Lys-Val-Leu-Pro-Val-Pro (SEQ ID NO: 3) or Lys-Val-Leu-Pro-Val-Pro-Gln (SEQ ID NO: 4)”.

Take “Val-Pro-Pro (VPP; Peptide derived from casein) [tripeptide derived from β-casein, synthesized and tested as positive control]”: in series [2] (dose 1.6 mg/kg BW, at 6 h after oral administration (Nakamura et al., 1995)), the “decrease of SBP” value is given as 20 mmHg. For the same substance, in series [1] (at 4 h), the “maximal DBP decrease” value was found to be 18.0±2.1 mmHg and the “maximal SBP decrease” value is recorded as 26.3±3.2 mmHg.

(Values after patent US7763281B2, “Antihypertensive peptide and use thereof” (Da-Yeh University, priority 2007, dated 2010).)
